Laboratory results taken from publication PMC9837035 (Nature Communications, 2023).
Values joined by “and” are separate entries in the source; they are usually repeats but may differ in a detail not shown here. Equal entries are not always repeated.

How the values were obtained:
[1] = system: BGLT3 RNA in HUDEP-2 cells; assay: RT-qPCR of BGLT3 in HUDEP-2 cells; assay type: cell-based, human; conditions: Sup.Fig.11a; relative to DMSO = 1; replicate values
Protocol: (§1) Total cellular RNA was prepared using the Tissue Total RNA Mini Kit (FAVORGEN), and cDNA was synthesized using ReverTra Ace Master Mix (TOYOBO). Expression of target genes was analyzed using THUNDERBIRD SYBR qPCR Mix (TOYOBO) on a CFX Connect Real Time System (Bio-Rad). The qPCR data were acquired on CFX Maestro (Bio-Rad). Primers are listed in Supplementary Table 10. GAPDH was used as a reference. Primers were purchased from INTEGRATED DNA TECHNOLOGIES or FASMAC.

[2] = system: H3K9ac at the β-globin locus; assay: ChIP-qPCR with antibody against H3K9ac in HUDEP-2 cells; assay type: cell-based, human; parameters: ChIP-qPCR using antibodies against H3K9ac in HUDEP-2 cells treated with SAHA: unit not given here; conditions: for ChIP-qPCR using antibodies against H3K9ac in HUDEP-2 cells treated with SAHA: experiments 1-3, a/b replicates
Protocol: A total of 0.5–1 × 10^6 cells were cross-linked with 1% formaldehyde for 10 min at room temperature and the reaction was quenched with 250 mM glycine. Cross-linked cells were then lysed with buffer 1 (15 mM Tris-HCl (pH 7.5), 60 mM KCl, 15 mM NaCl, 5 mM MgCl2, 0.1 mM EGTA, 300 mM sucrose, […], 1 mM phenylmethanesulfonyl fluoride (PMSF), 0.5% NP40) and incubated on ice for 10 min. […] After centrifugation, the pellet was then re-suspended in MNase buffer (50 mM Tris-HCl (pH 7.5), 1 mM CaCl2, 4 mM MgCl2, 320 mM sucrose, 1 mM PMSF) and digested with 100 U of micrococcal nuclease (Takara) at 37 °C for 15 min. […] Beads were washed sequentially once with the following buffers: wash buffer A (50 mM Tris-HCl (pH 7.5), 75 mM NaCl, 10 mM EDTA, 0.01% NP40), wash buffer B (50 mM Tris-HCl (pH 7.5), 100 mM NaCl, 10 mM EDTA, 0.01% NP40), wash buffer C (50 mM Tris-HCl (pH 7.5), 175 mM NaCl, 10 mM EDTA, 0.01% NP40). After treatment with proteinase K in buffer 4 (20 mM Tris-HCl (pH 8.0), 10 mM EDTA, 400 mM NaCl, 0.5% SDS) at 56 °C overnight, DNA was purified using the FastGene Gel/PCR Extraction Kit (Nippon Genetics). The samples were analyzed by qPCR. Primers are listed in Supplementary Table 10. ChIP-seq experiments were performed by GENEWIZ. Tracks were visualized using the integrative genome viewer. ChIP-seq analysis were analyzed Cutadapt (V1.9.1) for QC, FastQC (V0.10.1) for QC assessment, Bowtie (V2.1.0) for mapping, strand cross-correlation (SCC) for ChIP quality assessment, MACS2 for peak calling, and R package ChIPpeakAnno for Peak annotated.

[3] = system: BGLT3-knockdown HUDEP-2 cells; assay: RT-qPCR of BGLT3, β- and γ-globin in BGLT3-knockdown HUDEP-2 cells; assay type: cell-based, human; conditions: 1 μM, relative to shctrl DMSO = 1, replicate values
Protocol: as §1
Retroviral infection was used as previously described to establish cell lines stably expressing BGLT3 and transfected with the pCX4-pur vector, as well as knockdown cell lines transfected with the pSUPER vector[58]. Briefly, retroviruses were produced by transfecting PLAT-E cells with pCX4-pur-BGLT3 or pSUPER-ctrl, pSUPER-BGLT3, or pSUPER-G9a using 5 μg/mL polyethylenimine MAX (PEI MAX, Polysciences). Two days after transfection, the culture supernatant was collected and filtered through a 0.45-μm filter (Millipore) and used for infection with 8 μg/mL polybrene (Sigma). Forty-eight hours after infection, the infected cells were selected with 0.2 μg/mL puromycin (InvivoGen). The clonal puromycin-resistant cells were established via limiting dilution. The desired clones were confirmed by western blotting or qPCR.

[4] = system: rat myoblast cell line H9c2; assay: Cell viability assay (WST-8), H9c2; assay type: cell-based; conditions: control (0 μM) = 100
Protocol: (§2) A WST-8 (2-(2-methoxy-4-nitrophenyl)-3-(4-nitrophenyl)-5-(2,4-disulfophenyl)-2H-tetrazolium) assay using a Cell Counting Kit-8 (DOJINDO) was performed to measure cell viability using an EnSpire microplate reader (PerkinElmer).

mice = assay: Mouse acute toxicity assay, survival; assay type: in vivo; conditions: intravenous, 2-week observation
Protocol: All animal studies were approved by the Institutional Committee for Animal Experiments of the Institute of Microbial Chemistry, and were performed in accordance with relevant guidelines and regulations to minimize animal suffering. Four-week-old female ICR mice were purchased from Charles River Breeding Laboratories (Yokohama, Japan) and maintained in a specific pathogen-free barrier facility. […] Samples were dissolved in saline containing 10% DMSO and 1% Tween 80 and injected intravenously into mice.

[5] = Cell viability assay (WST-8), HUDEP-2; assay type: cell-based, human; conditions: human, HUDEP-2 cells, control (0 μM) = 100
Protocol: as §2

HUDEP-2 cells = assay: Cell viability assay (WST-8), HUDEP-2; assay type: cell-based, human; conditions: control (0 μM) = 100
Protocol: as §2

In the case of `O=C(CCCCCCC(=O)Nc1ccccc1)NO` [SAHA], the “BGLT3 expression in HUDEP-2 cells” value [1] is reported as 4.739 and 6.125 and 5.109, the “ChIP-qPCR using antibodies against H3K9ac in HUDEP-2 cells treated with SAHA” value (from here on “ChIP-qPCR using antibodies”) ([2]; BGLT3 locus) is reported as 4.594 and 4.901 and 3.587 and 4.136 and 7.628 and 5.8678 and the “ChIP-qPCR using antibodies” value ([2]; HS1) is reported as 3.554 and 4.79 and 1.956 and 6.9673 and 5.354. The “ChIP-qPCR using antibodies” value ([2]; HS2) was 3.581 and 3.815 and 1.139 and 1.6187 and 3.866 and 3.138, the “ChIP-qPCR using antibodies” value ([2]; HS3) was 2.6549 and 2.681 and 1.467 and 2.973 and 2.979 and the “ChIP-qPCR using antibodies” value ([2]; HS4) was 3.747 and 4.945 and 3.035 and 2.8654 and 4.964 and 4.658. The “histone H3 acetylation at the β-globin gene locus” value ([2]; HUDEP-2, 1 μM, 1 day) was “increased”, the “ChIP-qPCR using antibodies” value ([2]; β-globin promoter) was 1.524 and 1.253 and 1.188 and 2.806 and 2.767 and the “ChIP-qPCR using antibodies” value ([2]; γ-globin promoter) was 0.7378 and 1.324 and 1.03 and 1.066 and 1.991 and 1.048. The “ChIP-qPCR using antibodies” value ([2]; δ-globin promoter) was 4.601 and 5.375 and 3.661 and 4.076 and 5.898 and 5.487, the “β-globin gene in BGLT3-knockdown HUDEP-2 cells” value ([3]; shBGLT3 #1) was 2.301 and 2.189 and 2.546 and the “γ-globin gene in BGLT3-knockdown HUDEP-2 cells” value (“γ-globin gene” below) ([3]; shBGLT3 #1) was 4.852 and 4.747 and 4.193. For the same compound, the “β-globin gene in BGLT3-knockdown HUDEP-2 cells” value ([3]; shBGLT3 #2) was 1.2128 and 1.2413 and 1.0394, the “γ-globin gene” value ([3]; shBGLT3 #2) was 3.094 and 3.659 and 2.955 and the “β-globin gene in BGLT3-knockdown HUDEP-2 cells” value ([3]; shBGLT3 #3) was 2.448 and 2.303 and 2.192. The “γ-globin gene” value ([3]; shBGLT3 #3) was 2.0995 and 2.031 and 1.807, the “β-globin gene in BGLT3-knockdown HUDEP-2 cells” value ([3]; shctrl) was 3.928 and 4.654 and 3.722 and the “γ-globin gene” value ([3]; shctrl) was 13.6262 and 15.6907 and 11.2259.

With `COc1cc2c(NC3CCN(C(C)C)CC3)nc(N3CCC(F)(F)CC3)nc2cc1OCCCN1CCCC1` [UNC0642] the “cell viability in H9c2 cells” value ([4]; 0.039 μM) was 113.444 and 97.977 and 82.062, the “cell viability in H9c2 cells” value ([4]; 0.156 μM) was 119.033 and 94.058 and 85.452 and the “cell viability in H9c2 cells” value ([4]; 0.625 μM) was 120.242 and 96.207 and 89.831. For the same compound, the “cell viability in H9c2 cells” value ([4]; 2.5 μM) was 126.737 and 89.381 and 103.107, the “cell viability in H9c2 cells” value ([4]; 10.0 μM) was 69.940 and 117.826 and 118.079 and the “Number of alive mice” value (mice; 1.5625 mg/kg) was 3/3. The “Number of alive mice” value (mice; 3.125 mg/kg) was 3/3, the “Number of alive mice” value (mice; 6.25 mg/kg) was 2/3 and the “Number of alive mice” value (mice; 12.5 mg/kg) was 1/3. The “Number of alive mice” value (mice; 25 mg/kg) was 0/3, the viability at 0.00457247 μM ([5]; 0.00457247 μM) was 97.1% and the viability at 0.0137174 μM ([5]; 0.0137174 μM) was 87.4%. It also gave a viability at 0.0411523 μM ([5]; 0.0411523 μM) of 86.5%, a viability at 0.123457 μM ([5]; 0.123457 μM) of 92.1% and a viability at 0.37037 μM ([5]; 0.37037 μM) of 85.8%. The viability at 1.11111 μM ([5]; 1.11111 μM) was 85.2%, the viability at 3.33333 μM ([5]; 3.33333 μM) was 54.8% and the viability at 10 μM ([5]; 10 μM) was 8.77%. The “cell viability in HUDEP-2 cells” value (HUDEP-2 cells; 0.00457247 μM) was 98.5098 and 95.7411, the “cell viability in HUDEP-2 cells” value (HUDEP-2 cells; 0.0137174 μM) was 90.6667 and 93.356 and the “cell viability in HUDEP-2 cells” value (HUDEP-2 cells; 0.0411523 μM) was 91.9216 and 91.6525. For the same compound, the “cell viability in HUDEP-2 cells” value (HUDEP-2 cells; 0.123457 μM) was 105.098 and 92.3339, the “cell viability in HUDEP-2 cells” value (HUDEP-2 cells; 0.37037 μM) was 89.4118 and 91.9932 and the “cell viability in HUDEP-2 cells” value (HUDEP-2 cells; 1.11111 μM) was 93.8039 and 89.2675. The “cell viability in HUDEP-2 cells” value (HUDEP-2 cells; 3.33333 μM) was 61.4902 and 56.2181 and the “cell viability in HUDEP-2 cells” value (HUDEP-2 cells; 10 μM) was 12.549 and 12.2658.
